Where a name gives a salt, the structure may show the parent alone. Read-outs that look alike come from different tables or passages of the source.
Experiments:
Type in all cases: in vivo
[1] = test system: gastric secretion; experiment: Anti-secretive activity in the rat with lig. pylorus, iv; conditions: read-out: Activity A: anti-secretive activity ED50
[2] = Acute toxicity (DL50) in the mouse; conditions: in vivo, iv (Table 1), read-out: DL50 value
Source text: *1 DL50 in the mouse mg/kg iv.
Examples of differences between toxicity (DL50 in
the mouse) by intravenous administration and oral
administration in mg/kg. Variation in therapeutic

[3] = test system: gastric secretion; experiment: Anti-secretive activity in the rat by gastric stimulus, oral; conditions: oral (Table 1), read-out: Activity B: anti-secretive activity ED50
Protocol: *3 Anti-secretive activity in the rat by gastric stimulus, ED50 mg/k

[4] = test system: gastric secretion; experiment: Comparison of antisecretive activity, rats with tied pylorus, oral aqueous suspension; conditions: oral
Protocol: (*)The antisecretive activity is defined as the dose in mg/kg of body
weight of the animal, which reduces the gastric secretion by 50%. The
evaluation is effected by considering the decrease in quantity of secrete
gastric juice as compared with controls. Rats of an average weight of 200
± 20 grams are employed of which the lower part of the stomach at the
level of the pylorus is tied to collect the gastric juice during the
indicated periods. The preparations are administered orally in the form o

[5] = rat with lig. pylorus, iv (Table 1)

SMILES	ED50 ([1]; Rattus norvegicus, iv) [mg/kg]	LD50 [2] [mg/kg]	ED50 [3] [mg/kg]	ED50 [1, 5] [mg/kg]	LD50 ([2]; iv) [mg/kg]	Antisecretive activity (dose which reduces the gastric secretion by 50%) ([4]; 2.5 hrs, 150 min) [mg/kg]	Antisecretive activity (dose which reduces the gastric secretion by 50%) ([4]; 5 hrs, 300 min) [mg/kg]	Antisecretive activity (dose which reduces the gastric secretion by 50%) ([4]; 10 hrs, 600 min) [mg/kg]
Cc1ccc(C(=O)NC(Cc2c[nH]c3ccccc23)C(=O)O)cc1 (racemic) [Ex.23 (CR555), N-p-toluyl-DL-tryptophane]	204	340	172	–	–	–	–	–
O=C(NC(Cc1c[nH]c2ccccc12)C(=O)O)c1ccccc1Cl (racemic) [Ex.51 (CR618), N-o-chlorobenzoyl-DL-tryptophane]	–	1400	320	345	–	–	–	–
O=C(NC(Cc1c[nH]c2ccccc12)C(=O)O)OCc1ccc(Cl)cc1 (racemic) [Ex. 4 (CR463), N-p-chloro-carbobenzoxy-DL-tryptophane]	161	–	130	–	217	–	–	–
Nc1ccc(C(=O)N[C@@H](Cc2c[nH]c3ccccc23)C(=O)O)cc1 [CR 504 - Calcium salt]	–	–	–	–	–	1480	1865	> 2000
CCc1ccc(COC(=O)N[C@@H](Cc2c[nH]c3ccccc23)C(=O)O)cc1 [Ex.10 (CR500), N-p-ethyl-carbobenzoxy-L-tryptophane]	142	–	117	–	158	–	–	–
O=C(N[C@@H](Cc1c[nH]c2ccccc12)C(=O)O)OCc1ccc(C(F)(F)F)cc1 [Ex.11 (CR515), N-p-trifluoromethyl-carbobenzoxy-L-tryptophane]	112	–	92	–	175	–	–	–
O=C(N[C@@H](Cc1c[nH]c2ccccc12)C(=O)O)OCc1ccc(Cl)cc1Cl [Ex.13 (CR470), N-(2,4-dichloro)-carbobenzoxy-L-tryptophane]	–	–	97	130	170	–	–	–
O=C(N[C@@H](Cc1c[nH]c2ccccc12)C(=O)O)OCc1c(Cl)cccc1Cl [Ex.14 (CR495), N-(2,6-dichloro)-carbobenzoxy-L-tryptophane]	–	–	108	132	268	–	–	–
O=C(N[C@@H](Cc1c[nH]c2ccccc12)C(=O)O)OCc1cccc(Cl)c1Cl [Ex.15 (CR499), N-(2,3-dichloro)-carbobenzoxy-L-tryptophane]	–	–	60	100	175	–	–	–
O=C(N[C@@H](Cc1c[nH]c2ccccc12)C(=O)O)OCc1ccc(Cl)c(Cl)c1 [Ex.16 (CR469), N-(3,4-dichloro)-carbobenzoxy-L-tryptophane]	137	–	104	–	208	–	–	–
Cc1ccc(COC(=O)N[C@@H](Cc2c[nH]c3ccccc23)C(=O)O)cc1Cl [Ex.17 (CR497), N-(3-chloro-4-methyl)-carbobenzoxy-L-tryptophane]	231	–	196	–	190	–	–	–
O=C(N[C@@H](Cc1c[nH]c2ccccc12)C(=O)O)c1ccc(Br)cc1 [Ex.19 (CR503), N-p-bromo-benzoyl-L-tryptophane]	111	360	85	–	–	–	–	–
O=C(N[C@@H](Cc1c[nH]c2ccccc12)C(=O)O)c1ccc(C(F)(F)F)cc1 [Ex.20 (CR505), N-p-trifluoromethyl-benzoyl-L-tryptophane]	160	210	110	–	–	–	–	–
Cc1ccc(C(=O)N[C@H](Cc2c[nH]c3ccccc23)C(=O)O)cc1 [Ex.22 (CR556), N-p-toluyl-D-tryptophane]	354	365	190	–	–	–	–	–
N#Cc1ccc(C(=O)N[C@@H](Cc2c[nH]c3ccccc23)C(=O)O)cc1 [Ex.24 (CR512), N-p-cyano-benzoyl-L-tryptophane]	500	1450	360	–	–	–	–	–
O=C(N[C@@H](Cc1c[nH]c2ccccc12)C(=O)O)c1ccc(F)cc1 [Ex.25 (CR506), N-p-fluoro-benzoyl-L-tryptophane]	223	655	295	–	–	–	–	–
COc1ccc(C(=O)N[C@@H](Cc2c[nH]c3ccccc23)C(=O)O)cc1 [Ex.26 (CR507), N-p-methoxy-benzoyl-L-tryptophane]	–	1000	494	437	–	–	–	–
O=C(O)c1ccc(C(=O)N[C@@H](Cc2c[nH]c3ccccc23)C(=O)O)cc1 [Ex.27 (CR508), N-p-carboxy-benzoyl-L-tryptophane]	–	900	406	514	–	–	–	–
O=C(N[C@@H](Cc1c[nH]c2ccccc12)C(=O)O)c1ccc([N+](=O)[O-])cc1 [Ex.29 (CR502), N-p-nitro-benzoyl-L-tryptophane. C2 H5 OH]	–	806	270	339	–	–	–	–

SMILES	ED50 ([1]; Rattus norvegicus, iv) [mg/kg]	LD50 [2] [mg/kg]	ED50 [3] [mg/kg]	ED50 [1, 5] [mg/kg]	LD50 ([2]; iv) [mg/kg]	Antisecretive activity (dose which reduces the gastric secretion by 50%) ([4]; 2.5 hrs, 150 min) [mg/kg]	Antisecretive activity (dose which reduces the gastric secretion by 50%) ([4]; 5 hrs, 300 min) [mg/kg]	Antisecretive activity (dose which reduces the gastric secretion by 50%) ([4]; 10 hrs, 600 min) [mg/kg]
O=C(N[C@@H](Cc1c[nH]c2ccccc12)C(=O)O)c1cccc(Cl)c1 [Ex.30 (CR546), N-m-chloro-benzoyl-L-tryptophane]	210	560	147	–	–	–	–	–
O=C(N[C@@H](Cc1c[nH]c2ccccc12)C(=O)O)OCc1cccc2ccccc12 [Ex.31 (CR514), N-(carbo-alpha-naphthyl-methoxy)-L-tryptophane]	–	–	94	128	160	–	–	–
CCOC(=O)c1ccc(NC(=O)[C@H](Cc2c[nH]c3ccccc23)NC(=O)OCc2ccccc2)cc1 [Ex.33 (CR401), Ethyl-N-carbobenzoxy-L-tryptophyl-p-aminobenzoate]	–	–	320	470	1000	–	–	–
O=C(N[C@@H](Cc1c[nH]c2ccccc12)C(=O)Nc1ccc(C(=O)Oc2ccc(Cl)cc2Cl)cc1)OCc1ccccc1 [Ex.34 (CR432), 2,4-Dichlorophenyl-N-carbobenzoxy-L-tryptophyl-p-aminobenzoate]	–	–	310	370	1000	–	–	–
O=C(N[C@@H](Cc1c[nH]c2ccccc12)C(=O)Nc1ccc(C(=O)Oc2ccccc2)cc1)OCc1ccccc1 [Ex.35 (CR411), Phenyl-N-carbobenzoxy-L-tryptophyl-p-aminobenzoate]	–	–	460	610	1000	–	–	–
O=C(N[C@@H](Cc1c[nH]c2ccccc12)C(=O)Nc1ccc(C(=O)OCc2ccccc2)cc1)OCc1ccccc1 [Ex.36 (CR430), Benzyl-N-carbobenzoxy-L-tryptophyl-p-aminobenzoate]	–	–	520	690	1000	–	–	–
CCOC(=O)c1ccc(NC(=O)[C@H](Cc2c[nH]c3ccccc23)NC(=O)c2ccccc2)cc1 [Ex.37 (CR402), Ethyl-N-benzoyl-L-tryptophyl-p-aminobenzoate]	–	1000	460	310	–	–	–	–
COC(=O)Cc1ccc(NC(=O)[C@H](Cc2c[nH]c3ccccc23)NC(=O)OCc2ccccc2)cc1 [Ex.38 (CR417), Methyl-N-carbobenzoxy-L-tryptophyl-p-aminophenylacetate]	–	–	300	300	1000	–	–	–
O=C(Cc1ccc(NC(=O)[C@H](Cc2c[nH]c3ccccc23)NC(=O)OCc2ccccc2)cc1)OCc1ccccc1 [Ex.39 (CR419), Benzyl-N-carbobenzoxy-L-tryptophyl-p-aminophenylacetate]	–	–	350	430	1000	–	–	–
COC(=O)Cc1ccc(NC(=O)[C@H](Cc2c[nH]c3ccccc23)NC(=O)c2ccccc2)cc1 [Ex.40 (CR418), Methyl-N-benzoyl-L-tryptophyl-p-aminophenylacetate]	–	1000	180	290	–	–	–	–
O=C(O)c1ccc(NC(=O)[C@H](Cc2c[nH]c3ccccc23)NC(=O)c2ccccc2)cc1 [Ex.42 (CR404), N-benzoyl-L-tryptophyl-p-aminobenzoic acid]	–	500	220	284	–	–	–	–
O=C(N[C@@H](Cc1c[nH]c2ccccc12)C(=O)Nc1ccc(C(=O)O)cc1)OCc1ccccc1 [Ex.43 (CR422), N-Carbobenzoxy-L-tryptophyl-p-aminobenzoic acid]	–	–	180	321	460	–	–	–
O=C(O)Cc1ccc(NC(=O)[C@H](Cc2c[nH]c3ccccc23)NC(=O)OCc2ccccc2)cc1 [Ex.44 (CR435), N-carbobenzoxy-L-tryptophyl-p-aminophenylacetic acid]	–	–	210	370	980	–	–	–
O=C(Cc1ccc(Cl)cc1)N[C@@H](Cc1c[nH]c2ccccc12)C(=O)O [Ex.47 (CR584), N-p-chlorophenylacetyl-L-tryptophane]	–	545	270	487	–	–	–	–
CN(C)CCOC(=O)[C@H](Cc1c[nH]c2ccccc12)NC(=O)OCc1ccc(Cl)cc1 [Ex.48 (CR583), Dimethylaminoester of N-p-chlorocarbobenzoxy-L-trytophane hydrochloride]	–	–	121	170	210	–	–	–
CCN(CC)CCOC(=O)[C@H](Cc1c[nH]c2ccccc12)NC(=O)c1ccc(C)cc1 [Ex.49 (CR636), Diethylaminoethylester of N-p-toluyl-L-tryptophane oxalate]	–	320	120	160	–	–	–	–
O=C(N[C@H](Cc1c[nH]c2ccccc12)C(=O)O)c1ccccc1Cl [Ex.52 (CR637), N-o-chlorobenzoyl-D-tryptophane]	–	1530	390	440	–	–	–	–
O=C(N[C@@H](Cc1c[nH]c2ccccc12)C(=O)O)OCc1cccc(Cl)c1 [Ex. 2 (CR527), N-m-chloro-carbobenzoxy-L-tryptophane]	176	–	147	–	450	–	–	–
